Columns and labels:
diabetic (db/db) mice = assay: Electrophysiology (CMAP, NCV) in diabetic mice; format: in vivo, mouse; settings: after 30 days of treatment
Experimental: Standard electroneurography was performed before, during and after TRO 19622 drug treatment on CMT1A rats and diabetic mice that were anesthetized with 3% isoflurane. A pair of steel needle electrodes (AD Instruments, MLA1302, Oxford, UK) was placed subcutaneously along the nerve at sciatic notch (proximal stimulation). A second pair of electrodes was placed along the tibial nerve above the ankle (distal stimulation). Supramaximal square wave pulses lasting 10 ms and 1 mA for mice and 3.6 mA for rats were delivered using a PowerLab 26T (AD Instruments, Oxford, UK). Compound muscle action potential (CMAP) was recorded from the intrinsic foot muscles using steel electrodes. Both amplitudes and latencies of CMAP were determined. The distance between the two sites of stimulation was measured alongside the skin surface with fully extended legs, and nerve conduction velocities (NCVs) were calculated automatically from sciatic nerve latency measurements (for further details Fledrich et al., 2014^10).
As previously reported^37, 38, we observed a reduction of the nerve conduction velocity in db/db diabetic mice with no change in the amplitude of the compound of action potentials (CMAP).

[1] = tested on: myelinating Schwann cells; assay: mSC demyelination morphology (confocal microscopy) four days after nerve crush; format: in vivo, mouse; settings: intraperitoneal or intranerve injections before and daily after nerve injury
Experimental: Mice were anesthetized with isoflurane inhalation and placed under a Stemi2000 microscope (Zeiss). Incision area was shaved and cleaned using betadine solution. After incision, the gluteus superficialis and biceps femoris muscles were separated to reveal the cavity traversed by the sciatic nerve. The nerve was lift out using spatula and a thin glass needle filled with viral solution (8 μl) was introduced into the nerve with a micromanipulator. This solution was injected over 30 min with short pressure pulses using a Picospritzer III (Parker Hannifin) coupled to a pulse generator. After injection, the nerve was replaced into the cavity, the muscles were readjusted, and the wound was closed using clips (for further details see Gonzalez et al., 2014^3).
TRO19622 drug (Tocris bioscience, Ref. 2906) was diluted in ethanol to 20 mM and then, the solution was diluted in sterile PBS to 20 μM. TRO19622 treatments were realized by 3 mg/kg intraperitoneal (IP) injections of 20 mM solution or by intra sciatic nerve injections of 2 μl of drug solution 2 μM using a Hamilton syringe or a glass needle in sterile conditions 30 minutes before multiphoton image acquisitions or immunohistochemistry and demyelination studies respectively. Methyl jasmonate drug (Sigma-Aldrich, Ref. 392707) was diluted in 1 ml of sterile PBS to 1M or 3M. Methyl jasmonate treatments were realized by intra sciatic nerve injections of 1 μl of drug solution using a glass needle and micromanipulator in sterile conditions following the same virus injections procedure (see in vivo virus injection in the sciatic nerve method) two hours before multiphoton image acquisition. […] All drug concentrations were previously evaluated by Bordet et al, 2007^5; Goldin et al, 2008^6; Sharov et al, 2007^7.
Finally we also investigated the demyelination using typical defects induced in the cellular morphology of mSC. Nerves expressing control or VDAC1 shRNAs were crushed to induce demyelination and four days later, when demyelination is maximal, we analyzed the morphology of VDAC1-silenced mSC using confocal microscopy as described previously^19. mSC display long homogenous noodle-like morphology with a regular diameter but during demyelination, they acquire a heterogeneous morphology often alterning large structures (myelin ovoids) with thin processes and their extremities split in fine extensions.

phospho-c-jun = assay: Immunohistochemistry of phospho-c-jun in mSC of CMT1A rats; format: in vivo, rat; settings: compared to vehicle
Experimental: The dissected nerve was washed in L15 medium, fixed in Zamboni's fixative (Stefanini et al., 1967^4) for 10 min at room temperature, washed in PBS, and incubated in successive glycerol baths (15, 45, 60, 66% in PBS) for 18 to 24 h each before freezing at −20° C. The nerves were cut in small pieces in 66% glycerol and the perineurium sheet removed. Small bundles of fibers were teased in double-distilled water on Superfrost slides, dried overnight at room temperature, and the slides stored at −20° C. For immunostaining, the teased fibers were incubated for 1 h at room temperature in blocking solution (10% goat serum, 0.2% TritonX100, and 0.01% sodium azide in PBS). […]
While demyelinating diabetes peripheral neuropathy is a commonly acquired disease, demyelination is also the characteristic feature of a large number of inherited diseases called Charcot-Marie-Tooth diseases (CMT). […] Twelve weeks old CMT1A rats were daily treated with TRO19622 for 15 or 30 days and one day or two months after treatment, we analyzed MAPK demyelination pathways by western blot. […] Then we analyzed phospho-c-jun activation in mSC using immunohistochemistry. […] Next, we measured Schwann cell demyelination and g-ratio by toluidine blue staining on semi-thin sciatic nerve sections and on thin sections using electron microscopy.

SMILES: CC(C)CCC[C@@H](C)[C@H]1CC[C@H]2[C@@H]3CCC4=C/C(=N\O)CC[C@]4(C)[C@H]3CC[C@]12C [TRO19622, (NZ)—N-[(8S,9S,10R,13R,14S,17R)-10,13-dimethyl-17-[(2R)-6-methylheptan-2-yl]-1,2,6,7,8,9,11,12,14,15,16,17-dodecahydrocyclopenta[a]phenanthren-3-ylidene]hydroxylamine]
- CMAP amplitude (diabetic (db/db) mice): without change
- nerve conduction velocity (diabetic (db/db) mice): significantly increased to reach control mice velocity
- number of demyelinating cells after nerve injury [1]: strongly reduced
- phospho-c-jun amount in the mSC nucleus (phospho-c-jun): strongly reduced

Reference: patent US12053480B2, “Methods and pharmaceutical compositions for treating peripheral demyelinating diseases” (INSERM (INSTITUT NATIONAL DE LA SANTE ET DE LA RECHERCHE …, priority 2015, dated 2024)
